Entries after “also recorded” stand apart in the source; their conditions may differ.
Assays:
[1] = system: C2C12 mouse skeletal muscle myotubes; experiment: 3H-2-deoxyglucose uptake by fully differentiated C2C12 myotubes; assay type: cell-based; conditions: C2C12 myotubes, SEQ ID NO: 73 alone or together with insulin (FIG. 8)
Protocol: In particular: HBD1 SEQ ID NO: 73 (C18:0-HLGLEEPKK) at 0.8 μM, 1.5 μM, and 2.3 μM; or 1.5 μM SEQ ID NO: 73 (C18:0-HLGLEEPKK) for 2, 4, and 16 hours prior to testing glucose uptake.
The studies were performed using cultured, fully differentiated C2C12 mouse skeletal muscle myotubes. The cells were prepared by growing C2C12 cells to confluent density in DMEM with 25 mM glucose and 10% fetal bovine serum in 24 well plates. At this time, the medium was changed to differentiation medium (DMEM with 25 mM glucose and 2% horse serum) for 6 days with medium changed every third day. The various treatments were diluted in serum-free medium and, after washing the cells with serum-free medium, were added to the cells and incubated for 2 hours or alternative times, depending on the treatment. At the end of incubation period, the media was removed and 1.0 ml of glucose-free Krebs ringer bicarbonate buffer (pH 7.4), containing the same treatments, was added and incubation continued for 10 minutes. At the end of the 10 min incubation period, ^3H-2-deoxyglucose ([…]) (specific activity=8 Ci/mmole) was added directly to all wells, and the incubation continued for an additional […]. The wells were then rinsed three times with ice cold phosphate buffered saline, the cells were extracted with 0.5 N NaOH, and the ^3H-2-deoxyglucose content of the cell lysate quantitated by scintillation counting.

[2] = system: AMPK; experiment: AMPK phosphorylation (immunoblot anti-pAMPK T172) in C2C12 myotubes; assay type: cell-based, mouse; conditions: C2C12 myotubes treated with SEQ ID NO: 73 (FIG. 7)
Protocol: In particular: HBD1 SEQ ID NO: 73 (C18:0-HLGLEEPKK). The AMPK pathway is both insulin and IGF1 independent, but acts ultimately to induce GLUT4 translocation to the cell membrane to facilitate the uptake and metabolism of glucose.
For signaling studies the cells were prepared the same way except 6-well plates were used. After 6 days incubation in differentiating medium, the cells were washed with serum-free medium. The various treatments were then added in serum free medium containing 0.1% BSA. HBD1 peptides were added and incubated for 8 hours. When utilizing IGF-I, incubation was for 15 minutes after IGF-1 addition. Following incubation the cells were lysed in RIPA buffer and sonicated. The cell lysate was centrifuged and the supernatant analyzed for either Akt or AMPK by SDS PAGE using a 10% gel followed by immunoblotting with the appropriate antibody.
To examine further the intracellular transduction pathways utilized by the HBD1 peptides, following treatment with HBD1 peptide SEQ ID NO: 73 (C18:0-HLGLEEPKK), cell lysate proteins, were separated by SDS PAGE and immunoblotted with anti-pAMPK T172.

[3] = system: 3T3-LI adipocytes; experiment: [3H]-2-deoxyglucose uptake by fully differentiated 3T3-LI adipocytes; assay type: cell-based, mouse; conditions: 3 μg/ml for 24 hours
Protocol: The cells were exposed to the test compounds at a concentration of 3 μg/ml for 24 hours before testing for [^3H]-2-deoxyglucose uptake.
3T3-LI cells are a mouse fibroblast cell line which when cultured under specific conditions, differentiate into adipocytes.
Differentiation of 3T3-LI cells into adipocytes was achieved using the following protocol. 3T3-L1 cells were seeded in 24-well plates and cultured in 3T3-L1 maintenance medium (DMEM containing 10% fetal bovine serum, 4 mM L-glutamine 1 mM, sodium pyruvate) until the cells were 100% confluent. The cells were then fed with 3T3-L1 maintenance medium and cultured for a further 48 h. To initiate differentiation into adipocytes, the medium was changed to Differentiation medium 1 (DMEM containing 10% fetal bovine serum, 4 mM L-glutamine, 1 mM sodium pyruvate, 0.5 mM IBMX, […]), and cultured for a further 2 days. The medium was then changed to Differentiation medium 2 (DMEM containing 10% fetal bovine serum, 4 mM L-glutamine, 1 mM sodium pyruvate, 1 mg/ml insulin), and cultured for a further 2 days. The medium was then changed to Adipocyte Maintenance medium (DMEM containing 10% fetal bovine serum, 4 mM L-glutamine, 1 mM sodium pyruvate), and cultured for a further 7 days. During this time, the medium was changed every other day. The now fully differentiated adipocytes were utilized for glucose uptake experiments (day 11 from initiation of differentiation). Stock solutions of the HBD1 peptides to be tested were prepared by dilution with 0.9% NaCl solution under sterile conditions in a laminar flow cabinet to a concentration of 1 mg/ml, based on net peptide content. The solutions were homogenized by gentle inversion. Test items were prepared from the stock solutions, and remaining stock solution was aliquoted and stored at −20° C. and used without repeated freeze-thaw cycles.
Glucose uptake experiments were carried our using the following protocol. Prior to beginning the experiment, 100 ml of Krebs Ringer bicarbonate buffer (KRBB)(25 mM Hepes pH 7.4, 118 mM NaCl, 5 mM NaHCO3, 4.7 mM KCl, 1.2 mM KH2PO4, 1.2 mM MgSO4, 2.5 mM CaCl2, 0.2% BSA—Filtered using a 0.2 μm filter) and 100 ml of Incubation medium (DMEM containing 4 mM L-glutamine, 1 mM sodium pyruvate, 1% penicillin streptomycin, 0.2% BSA—Filtered using a 0.2 μm filter) were pre-warmed to 37° C., and 500 ml of KRBB was chilled on ice. Stock solutions of test compounds were diluted to 3 μg/ml final concentrations in pre-warmed Incubation medium and in pre-warmed KRBB. Insulin (positive control), previously diluted 1:1000 in sterile 0.9% NaCl, was further diluted in 10 ml of both medium and buffer to a final concentration of 1 nM. All traces of the medium were carefully removed from the cells using a fine tip. […]

[4] = system: mice; conditions: publication Xi, 2013; cited from earlier work

| Compound | effect of blocker on SEQ ID NO: 73-stimulated glucose uptake [1] | effect of blocker on SEQ ID NO: 73-induced AMPK phosphorylation [2] | glucose uptake by 3T3-LI adipocytes [3] | body weight and fat accumulation [4] | glucose tolerance [4] |
| --- | --- | --- | --- | --- | --- |
| c1cc(-c2cnn3cc(-c4ccc(OCCN5CCCCC5)cc4)cnc23)ccn1 [Compound C, reference compound] | completely abolished; also recorded: prevented | completely abolished; also recorded: prevented | – | – | – |
| HHLGLEEPKK [SEQ ID NO: 16] | – | – | stimulated increased glucose uptake | – | – |
| HLGLEEPKK [SEQ ID NO: 10] | – | – | stimulated increased glucose uptake | – | – |
| KHHLGLEEPKKLR [SEQ ID NO: 1] | – | – | stimulated increased glucose uptake | decrease body weight and fat accumulation | no effect |
